Data: patent US8629137B2, “CGRP antagonists” (Boehringer Ingelheim International GmbH, priority 2007, dated 2014)

Each compound was assayed against T1, human CGRP receptor (Homo sapiens, UniProt O60894+Q16602) (assay: Binding studies with SK-N-MC cells (expressing the human CGRP receptor)). Details: SK-N-MC cell membranes, displacement of 125I-iodotyrosyl-CGRP.
T1 construct: SK-N-MC cells are cultivated in “Dulbecco's modified Eagle medium”; endogenous in cells; host or cells: SK-N-MC cells (membrane homogenate)
Protocol: A. Binding Studies with SK-N-MC Cells (Expressing the Human CGRP Receptor)
SK-N-MC cells are cultivated in “Dulbecco's modified Eagle medium”. The medium is removed from confluent cultures. The cells are washed twice with PBS buffer (Gibco 041-04190 M), detached by the addition of PBS buffer mixed with 0.02% EDTA, and isolated by centrifuging. After resuspension in 20 ml of “Balanced Salts Solution” [BSS (in mM): NaCl 120, KCl 5.4, NaHCO3 16.2, MgSO4 0.8, NaHPO4 1.0, CaCl2 1.8, D-glucose 5.5, HEPES 30, pH 7.40] the cells are centrifuged twice at 100×g and resuspended in BSS. After the number of cells has been determined, the cells are homogenised using an Ultra-Turrax and centrifuged for 10 minutes at 3000×g. The supernatant is discarded and the pellet is recentrifuged in Tris buffer (10 mM Tris, 50 mM NaCl, 5 mM MgCl2, 1 mM EDTA, pH 7.40) enriched with 1% bovine serum albumin and 0.1% bacitracin, and resuspended (1 ml/1000000 cells). The homogenised product is frozen at −80° C. The membrane preparations are stable for more than 6 weeks under these conditions.
After thawing, the homogenised product is diluted 1:10 with assay buffer (50 mM Tris, 150 mM NaCl, 5 mM MgCl2, 1 mM EDTA, pH 7.40) and homogenised for 30 seconds with an Ultra-Turrax. 230 μl of the homogenised product are incubated for 180 minutes at ambient temperature with 50 pM ^125I-iodotyrosyl-Calcitonin-Gene-Related Peptide (Amersham) and increasing concentrations of the test substances in a total volume of 250 μl. The incubation is ended by rapid filtration through GF/B glass fibre filters treated with polyethyleneimine (0.1%) using a cell harvester. The protein-bound radioactivity is measured using a gamma counter. Non-specific binding is defined as the bound radioactivity after the presence of 1 μM human CGRP-alpha during incubation.
The concentration binding curves are analysed using computer-aided non-linear curve fitting.

T1 sequence (Q16602 23-461): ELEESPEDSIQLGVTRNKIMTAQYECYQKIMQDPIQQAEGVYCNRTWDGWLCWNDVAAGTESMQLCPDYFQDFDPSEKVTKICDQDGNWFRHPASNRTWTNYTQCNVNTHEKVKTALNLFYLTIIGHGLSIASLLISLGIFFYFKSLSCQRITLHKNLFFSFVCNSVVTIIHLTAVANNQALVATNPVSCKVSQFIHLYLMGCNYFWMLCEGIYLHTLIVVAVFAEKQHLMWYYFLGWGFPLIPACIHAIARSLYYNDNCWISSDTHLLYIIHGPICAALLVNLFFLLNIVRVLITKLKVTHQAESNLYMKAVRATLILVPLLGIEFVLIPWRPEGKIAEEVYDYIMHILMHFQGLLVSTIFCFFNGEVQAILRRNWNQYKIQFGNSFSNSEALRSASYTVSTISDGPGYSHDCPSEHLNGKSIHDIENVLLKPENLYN
T1 sequence (O60894 27-148): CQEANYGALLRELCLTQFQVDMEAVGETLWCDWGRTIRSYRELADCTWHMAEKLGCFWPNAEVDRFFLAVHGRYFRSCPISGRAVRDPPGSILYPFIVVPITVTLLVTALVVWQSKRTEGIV

Ki | Structure (SMILES)
4 nM | Cc1cc(C(=O)c2cc(N3CCC(n4nc(-c5ccccc5)[nH]c4=O)CC3)ncn2)cc2oc(=O)[nH]c12 [(3)]
0.4 nM | Cc1cc(C(=O)c2cc(N3CCC(n4c(=O)[nH]c5ncccc54)CC3)ncn2)cc2oc(=O)[nH]c12 [(1)]
1 nM | Cc1cc(C(=O)c2cc(N3CCC(n4c(=O)[nH]c5c6ccccc6ncc54)CC3)ncn2)cc2oc(=O)[nH]c12 [(4)]
